What was measured:
Type in all cases: cell-based, human
[1] = tested on: bioprinted full thickness skin tissue; assay: IL-1α production in media of bioprinted skin tissue (colorimetric assay), skin irritation test; conditions: 15 minute exposure, 5% SDS or 1% TRITON X-100, 24 well plate format
From the text: Bio-ink was generated by a cellular mixture of 100% primary adult human dermal fibroblasts (HDFa) in 8% gelatin (NOVOGEL 2.0) at a concentration of 100 million cells per milliliter. The cell: gelatin ratio was altered to reduce the cellular density of the dermal sheet to better mimic dermal tissue in native skin. Three-dimensional bio-ink constructs were printed by continuous deposition using the NOVOGEN BIOPRINTER platform in a 4 mm×4 mm×0.5 mm base to create a dermal structure resembling a sheet. […] The transwell printing surface contained a polytetrafluoroethylene (PTFE) membrane coated with equimolar mixture of types I and III collagen (bovine) with pores 3 μm in size. Epidermal cell paste containing a mixture of 100% primary neonatal human epidermal keratinocytes (HEKn) was then printed on top of the dermal bio-ink. Cell paste was measured post print at 87.1% viable by trypan exclusion assay. Cell numbers in the deposited epidermal layer was estimated at 60,000 cells by cell counting on a Cell-O-Meter. Immediately following the print, constructs were placed at 4° C. for 10 minutes. Cold media was then added to the outer well of the transwell in a volume of 3 ml. The media used for subsequent growth and maintenance of the skin tissue was a 50:50 ratio of HDFa: HEKn media. The initial volume added was sufficient to submerge the structure. All subsequent media changes used warmed media (37° C.) added to the outer well of the transwell and not to the inner basket. Media was changed 48 hours later and reduced to a volume of 1.5 ml per well to bring the structure to an air-liquid interface (ALI). Media and subsequently changed 48 hours after that (day 4) at a volume of 1.5 ml. On day 5, media was changed and further reduced to 1 ml per well and subsequently changed daily. On day 10, skin tissues were subject to a skin irritation test method using 1% TRITON X-100. 1% TRITON X-100 is a known irritant and reference chemical currently used in other 3D skin models. Methods were based on OECD guidelines 439 and 431 for applying human skin models to in vitro skin irritation or corrosion, respectively. On day 10, conditioned media was saved (designated time=0) and 1 ml of fresh media was added to the outer well of the transwell. The printed skin tissue was then treated with 20 μl of PBS as a negative control or with 20 μl of 1% TRITON X-100 as a positive control and known irritant. Test substances were pipetted manually to the apical surface of the tissue. TRITON X-100 was diluted to a 1% aqueous solution in deionized water and sterile filtered through a 20 micron filter before use. […] Media was saved (designated time=1 hour). Samples were then washed extensively by PBS rinsing. […] The media was then changed at 24 hours and at 48 hours post treatment. Total media collected included time points=−48, 0, 1, 24, and 48 hours. IL-1α production (R&D Systems) was analyzed in a colorimetric assays per manufacturer's protocol. Media was analyzed for lactate dehydrogenase as a marker for cytotoxicity. IL-1α production was assessed as a complementary endpoint to classic cytotoxicity testing to improve predictability of irritants. Keratinocytes normally produce and release inflammatory cytokine IL-1α in response to chemical or physical stress. […] Viability was measured as fluorescence in the media by conversion of resazurin to resorufin. […]

[2] = tested on: bioprinted full thickness skin tissue; assay: Viability of bioprinted skin tissue by alamar blue assay, skin irritation test
From the text: Bio-ink was generated by a cellular mixture of 100% primary adult human dermal fibroblasts (HDFa) in 8% gelatin (NOVOGEL 2.0) at a concentration of 100 million cells per milliliter. The cell: gelatin ratio was altered to reduce the cellular density of the dermal sheet to better mimic dermal tissue in native skin. Three-dimensional bio-ink constructs were printed by continuous deposition using the NOVOGEN BIOPRINTER platform in a 4 mm×4 mm×0.5 mm base to create a dermal structure resembling a sheet. […] The transwell printing surface contained a polytetrafluoroethylene (PTFE) membrane coated with equimolar mixture of types I and III collagen (bovine) with pores 3 μm in size. Epidermal cell paste containing a mixture of 100% primary neonatal human epidermal keratinocytes (HEKn) was then printed on top of the dermal bio-ink. Cell paste was measured post print at 87.1% viable by trypan exclusion assay. Cell numbers in the deposited epidermal layer was estimated at 60,000 cells by cell counting on a Cell-O-Meter. Immediately following the print, constructs were placed at 4° C. for 10 minutes. Cold media was then added to the outer well of the transwell in a volume of 3 ml. The media used for subsequent growth and maintenance of the skin tissue was a 50:50 ratio of HDFa: HEKn media. The initial volume added was sufficient to submerge the structure. All subsequent media changes used warmed media (37° C.) added to the outer well of the transwell and not to the inner basket. Media was changed 48 hours later and reduced to a volume of 1.5 ml per well to bring the structure to an air-liquid interface (ALI). Media and subsequently changed 48 hours after that (day 4) at a volume of 1.5 ml. On day 5, media was changed and further reduced to 1 ml per well and subsequently changed daily. On day 10, skin tissues were subject to a skin irritation test method using 1% TRITON X-100. 1% TRITON X-100 is a known irritant and reference chemical currently used in other 3D skin models. Methods were based on OECD guidelines 439 and 431 for applying human skin models to in vitro skin irritation or corrosion, respectively. On day 10, conditioned media was saved (designated time=0) and 1 ml of fresh media was added to the outer well of the transwell. The printed skin tissue was then treated with 20 μl of PBS as a negative control or with 20 μl of 1% TRITON X-100 as a positive control and known irritant. […] IL-1α production (R&D Systems) was analyzed in a colorimetric assays per manufacturer's protocol. Media was analyzed for lactate dehydrogenase as a marker for cytotoxicity. IL-1α production was assessed as a complementary endpoint to classic cytotoxicity testing to improve predictability of irritants. […] Viability was measured as fluorescence in the media by conversion of resazurin to resorufin. […]

[3] = tested on: bioprinted full thickness skin tissue; assay: Histological analysis of bioprinted skin tissue after irritant treatment (H&E, CK5/IVL, CK10, collagen 3, PCNA, TUNEL); conditions: 1% TRITON X-100, 1 hour exposure
From the text: Bio-ink was generated by a cellular mixture of 100% primary adult human dermal fibroblasts (HDFa) in 8% gelatin (NOVOGEL 2.0) at a concentration of 100 million cells per milliliter. The cell: gelatin ratio was altered to reduce the cellular density of the dermal sheet to better mimic dermal tissue in native skin. Three-dimensional bio-ink constructs were printed by continuous deposition using the NOVOGEN BIOPRINTER platform in a 4 mm×4 mm×0.5 mm base to create a dermal structure resembling a sheet. One tissue construct was printed per transwell in a 6-well plate. The transwell printing surface contained a polytetrafluoroethylene (PTFE) membrane coated with equimolar mixture of types I and III collagen (bovine) with pores 3 μm in size. Epidermal cell paste containing a mixture of 100% primary neonatal human epidermal keratinocytes (HEKn) was then printed on top of the dermal bio-ink. Cell paste was measured post print at 87.1% viable by trypan exclusion assay. Cell numbers in the deposited epidermal layer was estimated at 60,000 cells by cell counting on a Cell-O-Meter. Immediately following the print, constructs were placed at 4° C. for 10 minutes. Cold media was then added to the outer well of the transwell in a volume of 3 ml. The media used for subsequent growth and maintenance of the skin tissue was a 50:50 ratio of HDFa: HEKn media. The initial volume added was sufficient to submerge the structure. All subsequent media changes used warmed media (37° C.) added to the outer well of the transwell and not to the inner basket. Media was changed 48 hours later and reduced to a volume of 1.5 ml per well to bring the structure to an air-liquid interface (ALI). Media and subsequently changed 48 hours after that (day 4) at a volume of 1.5 ml. On day 5, media was changed and further reduced to 1 ml per well and subsequently changed daily. On day 10, skin tissues were subject to a skin irritation test method using 1% TRITON X-100. 1% TRITON X-100 is a known irritant and reference chemical currently used in other 3D skin models. Methods were based on OECD guidelines 439 and 431 for applying human skin models to in vitro skin irritation or corrosion, respectively. On day 10, conditioned media was saved (designated time=0) and 1 ml of fresh media was added to the outer well of the transwell. The printed skin tissue was then treated with 20 μl of PBS as a negative control or with 20 μl of 1% TRITON X-100 as a positive control and known irritant. Test substances were pipetted manually to the apical surface of the tissue. TRITON X-100 was diluted to a 1% aqueous solution in deionized water and sterile filtered through a 20 micron filter before use. Samples were incubated for 30 minutes at 37° C. followed by 30 minutes at room temperature for a total of 60 minutes. Media was saved (designated time=1 hour). Samples were then washed extensively by PBS rinsing. Transwells were then placed in a new 6-well plate with fresh media (1 ml) added to the outer well then placed back into 37° C. overnight. The media was then changed at 24 hours and at 48 hours post treatment. Total media collected included time points=−48, 0, 1, 24, and 48 hours. IL-1α production (R&D Systems) was analyzed in a colorimetric assays per manufacturer's protocol. Media was analyzed for lactate dehydrogenase as a marker for cytotoxicity. IL-1α production was assessed as a complementary endpoint to classic cytotoxicity testing to improve predictability of irritants. Keratinocytes normally produce and release inflammatory cytokine IL-1α in response to chemical or physical stress. At 48 hours post treatment (day 12), tissues were either lysed for RNA extraction and subsequent qPCR analysis, or tested for viability by alamar blue assay then rinsed in PBS and fixed with 2% PFA for histological analysis. Alamar blue (Life Technologies) was added per manufacturer's instructions to media and incubated with tissue constructs (1 ml) at 37° C. for 3 hours. […]

[4] = 48 hours post treatment (day 12)

Substance: TRITON X-100
- IL-1α production [1]: induced
- reduction in viability as compared to the PBS control (alamar blue) ([2]; 1% TRITON X-100, 1 hour exposure, 48 hours post treatment): 80%
- viability compared to the PBS control (alamar blue assay) ([2]; 15 minute exposure, 5% SDS or 1% TRITON X-100, 24 well plate format, 42 hours post treatment): 68.75%
- irritancy to bioprinted skin suggested by histology [3]: irritant
- CK5 positive basal keratinocyte layer [3, 4]: fragmented
- Collagen 3 staining compared to the PBS control [3, 4]: reduction in dermal fibroblast function
- H&E histology [3, 4]: separation of the epidermal and dermal layers
- macroscopic appearance of treated tissues [3, 4]: appeared similar to PBS control tissues macroscopically
- proliferation by PCNA staining ([3]; dermal fibroblasts and basal layer, day 12): reduction in proliferation
- apoptosis by TUNEL staining ([3]; dermal layer, day 12): increase in apoptosis
